Experimental data published in PubChem BioAssay (NCI).
Values joined by “and” are separate entries in the source; they are usually repeats but may differ in a detail not shown here. Equal values may be shown once.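 A five-concentration, 48-hour dose response in 96-well plates underlies each endpoint, interpolated linearly between surrounding concentrations. Abbreviation: GI50, concentration required for 50% inhibition of growth. TGI is the concentration that stops growth completely.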

Experiments:
Assay in all cases: inhibition of tumour cell growth, NCI panel, 48 h
M14 melanoma = system: M14 melanoma
OVCAR-3 ovarian = system: OVCAR-3 ovarian
TK-10 renal = system: TK-10 renal
EKVX NSCLC = system: EKVX NSCLC
MALME-3M melanoma = system: MALME-3M melanoma
NCI-H522 lung = system: NCI-H522 lung
LOX IMVI melanoma = system: LOX IMVI melanoma
HOP-92 NSCLC = system: HOP-92 NSCLC
RPMI-8226 leukemia = system: RPMI-8226 leukemia
HL-60(TB) leukemia = system: HL-60(TB) leukemia

`C=C1C(=O)O[C@H]2[C@H]1CC/C(COC(=O)/C=C\C(=O)NCc1ccc(Cn3c(=O)sn(-c4ccc(OC)cc4)c3=O)cc1)=C\CC[C@@]1(C)O[C@@H]21` gave a GI50 (M14 melanoma) of 0.603 µM, a TGI (M14 melanoma) of 1.36 µM and a GI50 (OVCAR-3 ovarian) of 0.245 µM. The TGI (OVCAR-3 ovarian) was 0.898 µM, the GI50 (TK-10 renal) was 0.917 µM and the TGI (TK-10 renal) was 1.67 µM. It also gave a GI50 (EKVX NSCLC) of 0.773 µM, a TGI (EKVX NSCLC) of 1.51 µM and a GI50 (MALME-3M melanoma) of 0.806 µM. For the same molecule, the TGI (MALME-3M melanoma) was 1.56 µM, the GI50 (NCI-H522 lung) was 0.648 µM and the TGI (NCI-H522 lung) was 1.56 µM. For the same molecule, the GI50 (LOX IMVI melanoma) was 0.36 µM, the TGI (LOX IMVI melanoma) was 1.09 µM and the GI50 (HOP-92 NSCLC) was 0.587 µM. For the same molecule, the TGI (HOP-92 NSCLC) was 1.36 µM, the GI50 (RPMI-8226 leukemia) was 0.313 µM and the TGI (RPMI-8226 leukemia) was 2.43 µM. It also gave a GI50 (HL-60(TB) leukemia) of 0.876 µM and a TGI (HL-60(TB) leukemia) of 3.74 µM.

With `O=C1Nc2ccccc2C1(c1ccc(O)c(F)c1)c1ccc(O)c(F)c1` the GI50 (M14 melanoma) was 12 µM, the TGI (M14 melanoma) was 65.5 µM and the GI50 (OVCAR-3 ovarian) was 0.295 µM. It also gave a TGI (OVCAR-3 ovarian) of 0.918 µM, a GI50 (TK-10 renal) of 0.409 µM and a TGI (TK-10 renal) of 11.3 µM. It also gave a GI50 (EKVX NSCLC) of 4.31 µM, a TGI (EKVX NSCLC) of 43.5 µM and a GI50 (MALME-3M melanoma) of 13.7 µM. The TGI (MALME-3M melanoma) was 46.6 µM, the GI50 (NCI-H522 lung) was 11.5 µM and the TGI (NCI-H522 lung) was 31.3 µM. For the same molecule, the GI50 (LOX IMVI melanoma) was 0.53 µM, the TGI (LOX IMVI melanoma) was 15.8 µM and the GI50 (HOP-92 NSCLC) was 2.36 µM. For the same molecule, the TGI (HOP-92 NSCLC) was 16.6 µM, the GI50 (RPMI-8226 leukemia) was 15.7 µM and the TGI (RPMI-8226 leukemia) was 52.6 µM. It also gave a GI50 (HL-60(TB) leukemia) of 15 µM and a TGI (HL-60(TB) leukemia) of 42.6 µM.

In the case of `C/C(=N\Nc1ccc2ccccc2n1)c1ccccc1O`, the TGI (M14 melanoma) is reported as greater than 100 µM, the TGI (OVCAR-3 ovarian) is reported as greater than 20 µM and the TGI (TK-10 renal) is reported as greater than 100 µM. The TGI (EKVX NSCLC) was greater than 100 µM, the TGI (MALME-3M melanoma) was greater than 100 µM and the TGI (NCI-H522 lung) was greater than 100 µM. It also gave a TGI (LOX IMVI melanoma) greater than 100 µM, a TGI (HOP-92 NSCLC) greater than 100 µM and a TGI (RPMI-8226 leukemia) greater than 100 µM. For the same molecule, the TGI (HL-60(TB) leukemia) was greater than 100 µM.

With `Cc1ccc(Cl)cc1Nc1nc(C(F)(F)F)ccc1C(=O)N/N=C/c1c(Cl)cccc1Cl` the GI50 (M14 melanoma) was 1 µM, the TGI (M14 melanoma) was 5.67 µM and the GI50 (OVCAR-3 ovarian) was 0.285 µM. The TGI (OVCAR-3 ovarian) was 2.7 µM, the GI50 (TK-10 renal) was 1.4 µM and the TGI (TK-10 renal) was 7.39 µM. The GI50 (EKVX NSCLC) was 0.507 µM, the TGI (EKVX NSCLC) was 3.71 µM and the GI50 (MALME-3M melanoma) was 1.69 µM. It also gave a TGI (MALME-3M melanoma) of 5.44 µM, a GI50 (NCI-H522 lung) of 1.77 µM and a TGI (NCI-H522 lung) of 5.98 µM. For the same molecule, the GI50 (LOX IMVI melanoma) was 0.648 µM, the TGI (LOX IMVI melanoma) was 5.15 µM and the GI50 (HOP-92 NSCLC) was 1.14 µM. It also gave a TGI (HOP-92 NSCLC) of 6.92 µM, a GI50 (RPMI-8226 leukemia) of 0.32 µM and a TGI (RPMI-8226 leukemia) of 1.79 µM. For the same molecule, the GI50 (HL-60(TB) leukemia) was 0.863 µM and the TGI (HL-60(TB) leukemia) was 3.36 µM.

For `CC1(C)CC(=O)C2=C(C1)NC(SSC1=C(C#N)C(c3ccc(Br)cc3)C3=C(CC(C)(C)CC3=O)N1)=C(C#N)C2c1ccc(Br)cc1` (configuration not stated), the GI50 (M14 melanoma) was 51.4 µg/mL, the TGI (M14 melanoma) was > 100 µM and 150 µg/mL and the GI50 (OVCAR-3 ovarian) was greater than 150 µg/mL. The TGI (OVCAR-3 ovarian) was > 100 µM and 150 µg/mL, the GI50 (TK-10 renal) was greater than 150 µg/mL and the TGI (TK-10 renal) was > 100 µM and 150 µg/mL. The GI50 (EKVX NSCLC) was greater than 150 µg/mL, the TGI (EKVX NSCLC) was > 100 µM and 150 µg/mL and the GI50 (MALME-3M melanoma) was 35.8 µg/mL. For the same molecule, the TGI (MALME-3M melanoma) was > 100 µM and 98.7 µg/mL, the GI50 (NCI-H522 lung) was 30 µg/mL and the TGI (NCI-H522 lung) was > 100 µM and 53.5 µg/mL. For the same molecule, the GI50 (LOX IMVI melanoma) was 22.9 µg/mL, the TGI (LOX IMVI melanoma) was > 100 µM and 46.6 µg/mL and the GI50 (HOP-92 NSCLC) was 46.4 µg/mL. The TGI (HOP-92 NSCLC) was > 100 µM and 116 µg/mL, the GI50 (RPMI-8226 leukemia) was 30.6 µg/mL and the TGI (RPMI-8226 leukemia) was > 100 µM and 79.3 µg/mL. The GI50 (HL-60(TB) leukemia) was 31.2 µg/mL and the TGI (HL-60(TB) leukemia) was > 100 µM and 77.1 µg/mL.

Molecule `COc1ccc2nc3cc(Cl)ccc3c(NCCC(=O)OCC(O)C(O)C(O[C@H](C)C(=O)NC(C)C(=O)NC(CCC(N)=O)C(=O)OCc3ccccc3)C(C=O)NC(C)=O)c2c1` (some centres not stated) has a TGI (M14 melanoma) of 35.5 µM, a TGI (OVCAR-3 ovarian) of 34.7 µM and a TGI (TK-10 renal) of 46.2 µM. For the same molecule, the TGI (EKVX NSCLC) was 36.9 µM, the TGI (MALME-3M melanoma) was greater than 100 µM and the TGI (NCI-H522 lung) was 28 µM. For the same molecule, the TGI (HOP-92 NSCLC) was 31.9 µM and the TGI (HL-60(TB) leukemia) was 56.3 µM.

In the case of `O=C(Nc1ccc(Cl)c(Cl)c1)C(=O)Nn1c(=S)[nH]c2ccccc2c1=O`, the TGI (M14 melanoma) is reported as greater than 100 µM, the TGI (TK-10 renal) is reported as greater than 100 µM and the TGI (EKVX NSCLC) is reported as greater than 100 µM. The TGI (MALME-3M melanoma) was greater than 100 µM, the TGI (NCI-H522 lung) was greater than 100 µM and the TGI (LOX IMVI melanoma) was greater than 100 µM. The TGI (HOP-92 NSCLC) was greater than 100 µM, the TGI (RPMI-8226 leukemia) was greater than 100 µM and the TGI (HL-60(TB) leukemia) was greater than 100 µM.
